Laboratory results reported in patent publication US9085557B2, “Quinolylpiperazino substituted thiolactone compounds and process for the preparation thereof” (Council of Scientific and Industrial Research, priority 2010, dated 2015).
Converted amounts (≈) assume the structure as drawn.

Experiments:
[1] = test system: M. tuberculosis H37Rv; test: In vivo efficacy in murine model of M. tuberculosis H37Rv infection; set-up: species or system mice (BALB/c)
Method: The Compound 3f used in this study ([…]). The compound 3f was tested in vivo at 25 mg/kg. Rifampicin at 20 mg/kg was also tested as positive control. For in vivo studies compound and rifampicin was dissolved in pure DMSO and formulation was prepared 50% PEG in water for oral administration. The final concentration of DMSO was less than 0.1% v/v.
The institutional animal Ethics committee of the Indian Institute of Integrative Medicine (CSIR, Jammu) approved all experimental protocols with animals and the use of animals. The animals were bred and maintained under standard husbandry conditions; viz. humidity, temperature (25±2° C.). 8-week-old female (BALB/c) mice 20-22 gm by weight were used for the efficacy studies. Animals were allowed 1 week of acclimation before intake into experimental studies. Feed and water were given ad libitum.
Infection of M. tuberculosis:
M. tuberculosis (H37Rv) for infection was grown by the culturing of bacteria from Lowenstein-Jensen slant in Middlebrooke 7H9 medium on a rotary shaker for 10 days at 37° C. […] The mice were sacrificed after week post infection (early control), and bacterial numbers in the lungs were determined by macerating the organs (lung) and plating serial tenfold serial dilution on Middlebrook 7H10 agar plates in triplicates. […]
Eight infected mice were sacrificed from the control group 7 day after the infection (before the initiation of treatment) to obtain the initial CFU load of M. tuberculosis H37Rv at the initiation of treatment. […] Viable bacteria were quantitated by plating 10-fold serial dilutions in duplicates on Middlebrook, 7H10 agar supplemented with 10% OADC (oleic acid albumin dextrose catalase, Becton Dickinson, Sparks, Md.) and incubated at 37° C. in 5% CO2 for 4-6 weeks. CFU per organ sample was counted and expressed as log10 CFU per organ. CFU during in-vivo studies were determined on Middlebrook 7H10 plates supplement with 10% OADC containing Vancomycin 10 μg/ml, Amphoterecin 10 μg/ml, Nalidaxic acid 25 μg/ml. […]

[2] = test system: M. tuberculosis XDR-1 (XDR- strain); test: microbe, parasite or virus in culture; assay type: cell-based, Mycobacterium tuberculosis; conditions: for in vitro activity (words): XDR clinical isolates
[3] = test system: AML-12 cells; test: Cytotoxicity assay (MTT) on cell line AML-12; assay type: cell-based
Method: The study was carried out using AML-12 cells line (ATCC-USA). Cells were grown in Dulbecco's Modified Eagle's Medium (DMEM) containing 10% fetal calf serum (FCS) and supplemented with 100 units/ml penicillin, 100 μg/ml streptomycin, 0.005 mg/ml insulin, 0.005 mg/ml transferrin, 5 ng/ml selenium, and 40 ng/ml dexamethasone, in a humidified atmosphere in 5% CO2 at 37° C., and were sub-cultured at 1:5 ratio once a week.
Cells were plated at a density of 3×10^4 cells/cm^2 and maintained in culture medium for 12 h after trypsinization. Cells were seeded onto 96-well plates and FCS was reduced to 5% for the experiment. Stock solutions of compound 3f were prepared fresh to avoid oxidation. Cells were incubated with the compounds (2-100 μg/ml) for 24 hrs.
After the completion of treatment, the medium was removed and cell viability was evaluated by assaying for the ability of functional mitochondria to catalyze the reduction of 3-(4,5-dimethylthiazol-2-yl)-2,5-diphenyltetrazolium bromide (MTT) to form formazan salt by mitochondrial dehydrogenases, and determined by Elisa reader at 565 nm (Multiskan Spectrum; Thermo Electron Corporation, USA). Percentage cytotoxicity was calculated with respect to the untreated cells.

[4] = test system: M. tuberculosis H37Rv (ATCC 27294); test: MIC determination by broth dilution against M. tuberculosis H37Rv; assay type: cell-based, Mycobacterium tuberculosis; conditions: for in vitro activity (words): M. tuberculosis H37Rv / sensitive isolates
[5] = test system: M. tuberculosis -617 (MDR- strain); test: microbe, parasite or virus in culture; assay type: cell-based, Mycobacterium tuberculosis; conditions: for in vitro activity (words): MDR clinical isolates

## CC1=C(OCCCCCCCCCCCCN2CCN(c3ccnc4cc(C(F)(F)F)ccc34)CC2)C(C)SC1=O (stereo not drawn) [Compound 3f, 3,5-dimethyl-4-[(12-4-[7-(trifluoromethyl)-4-quinolyl]piperazinododecyl)oxy]-5H-thiophen-2-one]
[1]; 25 mg/kg oral, 4 weeks
  type of in vivo activity (log CFU in lungs versus early control): bacteriostatic activity
[1]; BALB/c mice, intranasal infection, treatment from 1 week post infection, PO once daily for 4 weeks, RIF 20 mg/kg, 3f 25 mg/kg
  Log10 CFU/left Lung (mean ± SD): 6.2 ± 0.34 Log10 CFU/left Lung
[2]; M. tuberculosis XDR-1 clinical isolate, broth dilution, 3 weeks
  MIC: 0.5 µg/mL (≈ 0.845 µM)
[2]; listed as Compound 3f
  in vitro activity (words): active
[2]; listed as compound 3f
  in vitro activity (words): exhibits in vitro activity
[3]
  IC50 (extrapolate), cytotoxicity on AML-12: IC50 > 433 μg/ml (extrapolate)
[4]; listed as Compound 3f
  in vitro activity (words): active
[4]; listed as compound 3f
  in vitro activity (words): exhibits in vitro activity
[4]; M. tuberculosis H37Rv, broth dilution, 3 weeks at 37° C., read visually (no turbidity)
  MIC: 0.5 µg/mL (≈ 0.845 µM)
[5]; M. tuberculosis 617 MDR clinical isolate, broth dilution, 3 weeks
  MIC: 0.5 µg/mL (≈ 0.845 µM)
[5]; listed as Compound 3f
  in vitro activity (words): active
[5]; listed as compound 3f
  in vitro activity (words): exhibits in vitro activity
